According to paper PMC6560211, “ApoAI-derived peptide increases glucose tolerance and prevents formation of atherosclerosis in mice” (Diabetologia, 2019):
No end group written: not given here.

What was measured:
[1] = DMPC MLV lipid clearance (lipid binding); settings: compared with ApoA-I; 30 nmol/l DMPC, 1:100 molar ratio, 25°C, absorbance at 325 nm; n=5
Procedure: Turbid MLV solutions at 30 nmol/l DMPC were combined with PBS, RG54 or ApoA-I at a 1:100 molar ratio, and lipid binding at 25°C was measured by absorbance at 325 nm at the indicated times. Readings were fitted to one-way decay of non-linear regression.
Quantitative and qualitative lipid assays were applied to determine the lipid-binding properties of RG54. Solubilisation of MLVs made from DMPC phospholipids by RG54 peptide, or by recombinant ApoA-I protein as control, was assayed by light scattering (ESM Fig. 4a).
ESM Figure 4. Lipid clearance and peptide-lipid complex formation activity of RG54 compared with full-length ApoA-I.
DMPC clearance activity of RG54 was compared with ApoA-I. Turbid solutions of DMPC MLVs (30 nmol/l) were prepared in PBS as described in Methods and combined with PBS, RG54, or ApoA-I at a 1:100 molar ratio then lipid binding at 25°C was measured by absorbance at 325 nm at indicated times. (a) Readings were fitted to one-way decay of non-linear regression. (b) The lipid clearance rate is described as t1/2 values calculated from panel a, means ± SEM, n=5, *** p ≤ 0.001. Further, rHDL particles were prepared by incubating the MLVs with proteins or peptides in the molar ratios noted at 24°C for four days. Particle size distribution was analysed by DLS and frequency curves generated for ApoA-I (c) or RG54 (d). […]

C2C12 myotubes = assay: Glucose uptake in muscle myotubes; format: cell-based, rat; settings: different concentrations of RG54; three independent experiments
Procedure: C2C12 myoblasts were differentiated to myotubes by switching from growth media to 2% FBS DMEM for 7 days, with the addition of cytosine arabinoside (Sigma, Stockholm, Sweden) from day 3 to 5 to eliminate proliferating cells. Prior to stimulation, cells starved for 2 h in serum-free DMEM were treated as described and glucose uptake measurements were carried out. See ESM Methods for more details.
Fig. 3 RG54 induces skeletal muscle glucose uptake and primes INS-1E cells to increase GSIS. (a) C2C12 skeletal muscle myotubes were incubated in the absence or presence of different concentrations of RG54 or with insulin, followed by glucose uptake measurements. Values are means ± SEM from three independent experiments. *p≤0.05, **p≤0.01, ***p≤0.001 vs control. (b) INS-1E cells were incubated for 2 h in the absence or presence of different concentrations of RG54 in a low-glucose environment (preincubation). Buffer was replaced with one containing low (3.3 mmol/l) or high (20 mmol/l) glucose but no RG54 peptide. Insulin secretion was measured after 1 h glucose challenge. […]
No statistical methods were used to predetermine sample sizes, but sample sizes are similar to those reported in the field. […] Group allocation was blinded for all mouse work when possible (such as collection of blood or tissues, sample quantification and analysis, and atherosclerosis scoring). […]

[2] = rHDL formation, particle size by DLS; settings: 1:100 protein:lipid molar ratio, extruded 100 nm MLVs, 4 days (96 h), 24°C
Procedure: 1,2-dimyristoyl-sn-glycero-3-phosphocholine (DMPC; Avanti Polar Lipids, Alabaster, AL, USA) was formed into 100 nm multilamellar vesicles (MLV) via extrusion using the LiposoFast system (Avestin, Ottawa, ON, Canada) as previously described. MLV were incubated with RG54 or ApoA-I at the indicated ratios for 4 days at 24°C to form rHDL. The resulting particle sizes were measured by dynamic light scattering (DLS) using a Zetasizer APS (Malvern Instruments, Uppsala, Sweden).
The reduced initial rate may be due to a more complex binding pattern of the larger number of RG54 peptides needed per formed particle: four to five RG54 molecules (54 amino acids each) are needed to make up the size of full-length ApoA-I (243 amino acids). A qualitative assessment of particle formation was therefore next used to evaluate and compare the sizes of formed rHDL. The hydrodynamic diameters of lipid–protein complexes formed after extended incubation (96 h) of RG54 or ApoA-I with extruded 100 nm MLVs were estimated using DLS.
ESM Figure 4. Lipid clearance and peptide-lipid complex formation activity of RG54 compared with full-length ApoA-I. […]

Ac-AEYHAKATEHLSTLSEKAKPALEDLRQGLLPVLESFKVSFLSALEEYTKKLNTQ [RG54]
initial rate of phospholipid binding [1]: significantly lower
glucose uptake (C2C12 myotubes): dose-dependent stimulation
lipid-protein complexes formed (DLS frequency plots) [2]: single peaks corresponding to rHDL particles
